From PubChem BioAssay (NCI)
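Protocol summary: plate cells (96-well), add compound at 5 concentrations, incubate 48 h, interpolate endpoints linearly. The concentration for 50% growth inhibition is given as GI50. TGI marks complete inhibition of growth.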

Experiments:
Test in all cases: inhibition of tumour cell growth, NCI panel, 48 h
786-0 renal = system: 786-0 renal
A498 renal = system: A498 renal
A549 NSCLC = system: A549 NSCLC
ACHN renal = system: ACHN renal
BT-549 breast = system: BT-549 breast
CAKI-1 renal = system: CAKI-1 renal
CCRF-CEM leukemia = system: CCRF-CEM leukemia
COLO 205 colon = system: COLO 205 colon
DU-145 prostate = system: DU-145 prostate
HCC-2998 colon = system: HCC-2998 colon
HCT-116 colon = system: HCT-116 colon
HCT-15 colon = system: HCT-15 colon
HL-60(TB) leukemia = system: HL-60(TB) leukemia
HOP-62 NSCLC = system: HOP-62 NSCLC
HOP-92 NSCLC = system: HOP-92 NSCLC
HS 578T breast = system: HS 578T breast
HT29 colon = system: HT29 colon
IGROV1 ovarian = system: IGROV1 ovarian
K-562 leukemia = system: K-562 leukemia
KM12 colon = system: KM12 colon
LOX IMVI melanoma = system: LOX IMVI melanoma
M14 melanoma = system: M14 melanoma
MALME-3M melanoma = system: MALME-3M melanoma
MCF7 breast = system: MCF7 breast
MDA-MB-231 breast = system: MDA-MB-231 breast
MDA-MB-435 = system: MDA-MB-435
MOLT-4 leukemia = system: MOLT-4 leukemia
NCI-H226 lung = system: NCI-H226 lung
NCI-H23 lung = system: NCI-H23 lung
NCI-H460 lung = system: NCI-H460 lung
NCI-H522 lung = system: NCI-H522 lung
NCI/ADR-RES ovarian = system: NCI/ADR-RES ovarian
OVCAR-3 ovarian = system: OVCAR-3 ovarian
OVCAR-4 ovarian = system: OVCAR-4 ovarian
OVCAR-5 ovarian = system: OVCAR-5 ovarian
OVCAR-8 ovarian = system: OVCAR-8 ovarian
PC-3 prostate = system: PC-3 prostate
RPMI-8226 leukemia = system: RPMI-8226 leukemia
RXF 393 renal = system: RXF 393 renal
SF-268 CNS = system: SF-268 CNS
SF-295 CNS = system: SF-295 CNS
SF-539 CNS = system: SF-539 CNS
SK-MEL-2 melanoma = system: SK-MEL-2 melanoma
SK-MEL-28 melanoma = system: SK-MEL-28 melanoma
SK-MEL-5 melanoma = system: SK-MEL-5 melanoma
SK-OV-3 ovarian = system: SK-OV-3 ovarian
SN12C renal = system: SN12C renal
SNB-19 CNS = system: SNB-19 CNS
SNB-75 CNS = system: SNB-75 CNS
SR leukemia = system: SR leukemia
SW-620 colon = system: SW-620 colon
T-47D breast = system: T-47D breast
TK-10 renal = system: TK-10 renal
U251 CNS = system: U251 CNS
UACC-257 melanoma = system: UACC-257 melanoma
UACC-62 melanoma = system: UACC-62 melanoma
UO-31 renal = system: UO-31 renal

O=C1NC(=NCc2ccccn2)S/C1=C\c1ccc2ncccc2c1
GI50 (786-0 renal): 13.4 µM
TGI (786-0 renal): > 25 µM
GI50 (A498 renal): 3.95 µM
TGI (A498 renal): > 18.8 µM
GI50 (A549 NSCLC): 8.41 µM
TGI (A549 NSCLC): > 25 µM
GI50 (ACHN renal): 10.2 µM
TGI (ACHN renal): > 25 µM
GI50 (BT-549 breast): 9.23 µM
TGI (BT-549 breast): > 25 µM
GI50 (CAKI-1 renal): 6.62 µM
TGI (CAKI-1 renal): > 18.9 µM
GI50 (CCRF-CEM leukemia): 10.7 µM
TGI (CCRF-CEM leukemia): > 25 µM
GI50 (COLO 205 colon): 7.68 µM
TGI (COLO 205 colon): > 25 µM
GI50 (DU-145 prostate): 9.81 µM
TGI (DU-145 prostate): > 25 µM
GI50 (HCC-2998 colon): 13.8 µM
TGI (HCC-2998 colon): > 25 µM
GI50 (HCT-116 colon): 8.86 µM
TGI (HCT-116 colon): > 25 µM
GI50 (HCT-15 colon): 6.86 µM
TGI (HCT-15 colon): > 25 µM
GI50 (HL-60(TB) leukemia): 6.56 µM
TGI (HL-60(TB) leukemia): > 25 µM
GI50 (HOP-62 NSCLC): 13.2 µM
TGI (HOP-62 NSCLC): > 25 µM
GI50 (HOP-92 NSCLC): 6.5 µM
TGI (HOP-92 NSCLC): > 21.8 µM
GI50 (HS 578T breast): 6.12 µM
TGI (HS 578T breast): 21.4 µM
GI50 (HT29 colon): 15 µM
TGI (HT29 colon): > 25 µM
GI50 (IGROV1 ovarian): 17.8 µM
TGI (IGROV1 ovarian): > 25 µM
GI50 (K-562 leukemia): 8.29 µM
TGI (K-562 leukemia): > 25 µM
GI50 (KM12 colon): 13.2 µM
TGI (KM12 colon): > 25 µM
GI50 (LOX IMVI melanoma): 13.1 µM
TGI (LOX IMVI melanoma): > 25 µM
GI50 (M14 melanoma): 11.6 µM
TGI (M14 melanoma): > 25 µM
GI50 (MALME-3M melanoma): > 13.1 µM
TGI (MALME-3M melanoma): > 23.3 µM
GI50 (MCF7 breast): 8.75 µM
TGI (MCF7 breast): > 25 µM
GI50 (MDA-MB-231 breast): 17.8 µM
TGI (MDA-MB-231 breast): > 25 µM
GI50 (MDA-MB-435): 7.64 µM
TGI (MDA-MB-435): > 21.9 µM
GI50 (MOLT-4 leukemia): 11.3 µM
TGI (MOLT-4 leukemia): > 25 µM
GI50 (NCI-H226 lung): 15 µM
TGI (NCI-H226 lung): > 25 µM
GI50 (NCI-H23 lung): 12.1 µM
TGI (NCI-H23 lung): > 25 µM
GI50 (NCI-H460 lung): 9.07 µM
TGI (NCI-H460 lung): > 25 µM
GI50 (NCI-H522 lung): 7.61 µM
TGI (NCI-H522 lung): > 18.8 µM
GI50 (NCI/ADR-RES ovarian): 16.9 µM
TGI (NCI/ADR-RES ovarian): > 25 µM
GI50 (OVCAR-3 ovarian): 12.6 µM
TGI (OVCAR-3 ovarian): > 25 µM
GI50 (OVCAR-4 ovarian): 9.74 µM
TGI (OVCAR-4 ovarian): 24.7 µM
GI50 (OVCAR-5 ovarian): > 25 µM
TGI (OVCAR-5 ovarian): > 25 µM
GI50 (OVCAR-8 ovarian): 14.4 µM
TGI (OVCAR-8 ovarian): > 25 µM
GI50 (PC-3 prostate): > 25 µM
TGI (PC-3 prostate): > 25 µM
GI50 (RPMI-8226 leukemia): > 12.6 µM
TGI (RPMI-8226 leukemia): > 25 µM
GI50 (RXF 393 renal): 8.8 µM
TGI (RXF 393 renal): > 25 µM
GI50 (SF-268 CNS): 8.5 µM
TGI (SF-268 CNS): > 25 µM
GI50 (SF-295 CNS): 14.7 µM
TGI (SF-295 CNS): > 25 µM
GI50 (SF-539 CNS): 7.54 µM
TGI (SF-539 CNS): > 25 µM
GI50 (SK-MEL-2 melanoma): 10.7 µM
TGI (SK-MEL-2 melanoma): > 22.8 µM
GI50 (SK-MEL-28 melanoma): > 23.7 µM
TGI (SK-MEL-28 melanoma): > 25 µM
GI50 (SK-MEL-5 melanoma): 13 µM
TGI (SK-MEL-5 melanoma): > 25 µM
GI50 (SK-OV-3 ovarian): 8.59 µM
TGI (SK-OV-3 ovarian): > 23.5 µM
GI50 (SN12C renal): 10.8 µM
TGI (SN12C renal): > 25 µM
GI50 (SNB-19 CNS): 10.7 µM
TGI (SNB-19 CNS): > 25 µM
GI50 (SNB-75 CNS): 4.21 µM
TGI (SNB-75 CNS): 22.4 µM
GI50 (SR leukemia): 6 µM
TGI (SR leukemia): 24.8 µM
GI50 (SW-620 colon): 7.81 µM
TGI (SW-620 colon): > 25 µM
GI50 (T-47D breast): 11.2 µM
TGI (T-47D breast): > 25 µM
GI50 (TK-10 renal): 6.06 µM
TGI (TK-10 renal): > 20.2 µM
GI50 (U251 CNS): 7.87 µM
TGI (U251 CNS): > 25 µM
GI50 (UACC-257 melanoma): > 12.7 µM
TGI (UACC-257 melanoma): > 25 µM
GI50 (UACC-62 melanoma): > 17.5 µM
TGI (UACC-62 melanoma): > 25 µM
GI50 (UO-31 renal): 11.3 µM
TGI (UO-31 renal): > 25 µM
